Experimental findings from US11976083B2, “Inhibitors of peptidylarginine deiminases” (Gilead Sciences, Inc., priority 2020, dated 2024) are described below.

Molecules are shown by their SMILES. pIC50: −log10 of the molar value.

The target in the assay is T1, human PAD4 (Homo sapiens, UniProt Q9UM07).
T1 construct: human PAD4 (NM_012387), A2-P663, was PCR amplified; His-SUMO (N, cleaved yes); made in house; host or cells: E. coli BL21(DE3)
As to the kind of experiment: In vitro PAD4 BAEE biochemical assay. As to conditions: BAEE substrate 3 mM, 5 nM PAD4, 2 mM calcium chloride; geometric mean of multiple experiments. The gist of the method:
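Ammonia produced by BAEE deimination (3 mM substrate, 2 h, 25 °C) was read as fluorescent isoindole after o-phthalaldehyde/DTT derivatization, ex 405 nm/em 535 nm. Human PAD4 at 5 nM final, 2 mM calcium, pH 7.6 MOPS; compound preincubated 30 min. IC50s, normalized to BB-Cl-Amidine and DMSO controls, were geometric-mean averaged.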

T1 sequence (Q9UM07 2-663): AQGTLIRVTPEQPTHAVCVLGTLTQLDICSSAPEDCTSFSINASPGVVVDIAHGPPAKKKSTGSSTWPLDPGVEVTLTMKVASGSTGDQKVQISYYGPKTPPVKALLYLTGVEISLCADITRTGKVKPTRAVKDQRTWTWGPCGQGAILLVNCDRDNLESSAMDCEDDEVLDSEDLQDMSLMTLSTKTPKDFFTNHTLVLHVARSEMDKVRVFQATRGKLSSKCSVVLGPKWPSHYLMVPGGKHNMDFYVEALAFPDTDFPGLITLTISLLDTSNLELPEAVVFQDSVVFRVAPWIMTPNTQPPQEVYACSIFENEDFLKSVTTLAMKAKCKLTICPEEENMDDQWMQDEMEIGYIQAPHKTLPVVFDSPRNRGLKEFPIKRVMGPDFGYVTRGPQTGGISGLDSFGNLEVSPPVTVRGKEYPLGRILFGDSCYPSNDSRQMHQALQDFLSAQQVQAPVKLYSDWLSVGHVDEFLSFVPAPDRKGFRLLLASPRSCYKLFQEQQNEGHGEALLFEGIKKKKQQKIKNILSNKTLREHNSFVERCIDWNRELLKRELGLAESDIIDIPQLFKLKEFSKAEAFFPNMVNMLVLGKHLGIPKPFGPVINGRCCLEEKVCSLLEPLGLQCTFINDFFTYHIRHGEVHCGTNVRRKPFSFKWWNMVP

In the case of `COc1cc(C(=O)N2CC[C@@H](OCC(F)F)[C@@H](N)C2)cc2nc(-c3cc4ccc5nc4n3CCCCC[C@@H]3C[C@H]3C(=O)N[C@@H]5C)n(C)c12` [Example 489, (2~{R},5~{R}, 7~{R})-14-[5-[(3~{S},4~{R})-3-amino-4-(2,2-difluoroethoxy)piperidine-1-carbonyl]-7-methoxy-1-methyl-benzimidazol-2-yl]-2-methyl-3,13,19-triazatetracyclo [11.5.2.0^{5,7}.0^{16,20}] icosa-1(19),14,16(20), 17-tetraen-4-one], the pIC50 is 7.11.

Regarding `COc1cc(C(=O)N2CC[C@@H](OC)[C@@H](N)C2)cc2nc(-c3cc4ccc5nc4n3CCCCCc3cnc(Cl)cc3C(=O)N[C@@H]5C)n(C)c12` [Example 359, (2~{R})-17-[5-[(3~{S},4~{R})-3-amino-4-methoxy-piperidine-1-carbonyl]-7-methoxy-1-methyl-benzimidazol-2-yl]-7-chloro-2-methyl-3,8,16,22-tetrazatetracyclo[14.5.2.0^{5,10}.0^{19,23}] tricosa-1(22),5,7,9,17,19(23),20-heptaen-4-one], the pIC50 is 6.98.

Turning to `COc1cc(C(=O)N2CC[C@@H](OC)[C@@H](N)C2)cc2nc(-c3cc4ccc5nc4n3CCCCC[C@@H]3C[C@@]3(C(F)(F)F)C(=O)N[C@@H]5C)n(C)c12` [Example 634, (2~{R},5~{S},7~{R})-14-[5-[(3~{S},4~{R})-3-amino-4-methoxy-piperidine-1-carbonyl]-7-methoxy-1-methyl-benzimidazol-2-yl]-2-methyl-5-(trifluoromethyl)-3,13,19-triazatetracyclo[11.5.2.0^ {5,7}.0^{16,20}] icosa-1(19),14,16(20), 17-tetraen-4-one], the pIC50 was 6.60.

`C[C@H]1NC(=O)[C@@]2(C)C[C@@H]2CCCCCn2c(-c3nc4cc(C(=O)N[C@H]5CNCC[C@@H]5F)c(F)cc4n3C3CC3)cc3ccc1nc32` [Example 545, 1-cyclopropyl-2-[(2~ {R},5~{S},7~{S})-2,5-dimethyl-4-oxo-3,13,19-triazatetracyclo[11.5.2.0^ {5,7}.0^{16,20}]icosa-1(19),14,16(20), 17-tetraen-14-yl]-6-fluoro-~{N}-[(3~ {S},4~{S})-4-fluoro-3-piperidyl]benzimidazole-5-carboxamide]: the pIC50 is 7.25.

On to `COc1cc(C(=O)N2CC[C@@H](OC(F)F)[C@@H](N)C2)cc2nc(-c3cc4ccc5nc4n3CC(F)(F)CCCCC(C)(C)C(=O)N[C@@H]5C)n(C)c12` [Example 609, (11~{R})-17-[5-[(3~{S}, 4~{R})-3-amino-4-(difluoromethoxy)piperidine-1-carbonyl]-7-methoxy-1-methyl-benzimidazol-2-yl]-3,3-difluoro-8,8,11-trimethyl-1,10,19-triazatricyclo[10.5.2.0^ {15,18}]nonadeca-12,14,16,18-tetraen-9-one], for which the pIC50 was 6.76.

With `C[C@H]1NC(=O)C(C)(C)CCCCCCn2c(-c3nc4cc(C(=O)N5C[C@H](N)C[C@@H](F)C5)c(F)cc4n3C3CC3)cc3ccc1nc32` [Example 194, (11~{R})-17-[5-[(3~{R},5~{R})-3-amino-5-fluoro-piperidine-1-carbonyl]-1-cyclopropyl-6-fluoro-benzimidazol-2-yl]-8,8,11-trimethyl-1,10,19-triazatricyclo[10.5.2.0^{15,18}]nonadeca-12(19),13,15(18),16-tetraen-9-one], the pIC50 is 6.82.

With `C[C@H]1NC(=O)c2ccc(Cl)nc2CCCCCn2c(-c3nc4cc(C(=O)N5C[C@H](N)[C@@H]6CC[C@H]5C6)cc(OC(F)(F)F)c4n3C)cc3ccc1nc32` [Example 714, (2~{R})-17-[5-[(1~{S},4~{R}, 5~{R})-4-amino-2-azabicyclo [3.2.1]octane-2-carbonyl]-1-methyl-7-(trifluoromethoxy)benzimidazol-2-yl]-8-chloro-2-methyl-3,9,16,22-tetrazatetracyclo[14.5.2.0^ {5,10).0^{19,23}]tricosa-1(22), 5(10),6,8,17,19(23),20-heptaen-4-one], the pIC50 was 7.40.

Take `C[C@H]1NC(=O)[C@@H]2C[C@H]2CCCCCn2c(-c3nc4cc(C(=O)N5CC6(CCCNC6)C5)c(F)cc4n3C3CC3)cc3ccc1nc32` [Example 569, (2~{R},5~{R},7~{R})-14-[1-cyclopropyl-5-(2,8-diazaspiro[3.5]nonane-2-carbonyl)-6-fluoro-benzimidazol-2-yl]-2-methyl-3,13,19-triazatetracyclo [11.5.2.0^{5,7}.0^ {16,20}]icosa-1(19),14, 16(20),17-tetraen-4-one]: the pIC50 is 6.96.

Take `COc1cc(C(=O)N[C@H]2CNCC[C@@H]2F)cc2nc(-c3cc4ccc5nc4n3CCCCCc3nccnc3C(=O)N[C@@H]5C)n(C)c12` [Example 241, ~{N}-[(3~{S},4~{S})-4-fluoro-3-piperidyl]-7-methoxy-1-methyl-2-[(2~{R})-2-methyl-4-oxo-3,6,9,16,22-pentazatetracyclo[14.5.2.0^{5,10}.0^{19, 23}]tricosa-1(21),5(10),6,8,17,19,22-heptaen-17-yl]benzimidazole-5-carboxamide]: the pIC50 was 7.09.

As to `COCCn1c(-c2cc3ccc4nc3n2CCCCCCC(C)(C)C(=O)N[C@@H]4C)nc2cc(C(=O)N[C@H]3CNCC[C@@H]3F)c(F)cc21` [Example 417, 6-fluoro-~{N}-[(3~{S},4~{S})-4-fluoro-3-piperidyl]-1-(2-methoxyethyl)-2-[(11~{R})-8,8,11-trimethyl-9-oxo-1,10,19-triazatricyclo[10.5.2.0^{15,18}]nonadeca-12(19),13,15(18),16-tetraen-17-yl]benzimidazole-5-carboxamide], the negative logarithm of the IC50 (pIC50) is 7.21.

As to `COc1cc(C(=O)N2[C@H]3CC[C@@H]2[C@H](N)C3)cc2nc(-c3cc4ccc5nc4n3CCCCCCOCC(=O)N[C@@H]5C)c(C)n12` [Example 248, (12~{R})-18-[7-[(1~{R},2~{R},4~{S})-2-amino-7-azabicyclo[2.2.1]heptane-7-carbonyl]-5-methoxy-3-methyl-imidazo[1,2-a]pyridin-2-yl]-12-methyl-8-oxa-1,11,20-triazatricyclo[11.5.2.0^{16,19}]icosa-13(20),14,16(19),17-tetraen-10-one], the pIC50 was 7.36.

Consider `C[C@H]1NC(=O)c2c(ccc3cccnc23)CCCCCn2c(-c3nc4cc(C(=O)N5C[C@H](N)[C@@H]6CC[C@H]5C6)cc(F)c4n3C3CC3)cc3ccc1nc32` [Example 841, (2~{R})-21-[5-[(1~{S},4~{R}, 5~{R})-4-amino-2-azabicyclo [3.2.1]octane-2-carbonyl]-1-cyclopropyl-7-fluoro-benzimidazol-2-yl]-2-methyl-3,7,20,26-tetrazapentacyclo [18.5.2.0^{5,14}.0^{6,1 1}.0^{23,27}]heptacosa-1(26),5(14),6(11),7,9,12,21, 23(27),24-nonaen-4-one], for which the pIC50 was 7.77.

In the case of `COc1cc(C(=O)N2CC[C@@H](OC)[C@@H](N)C2)cc2nc(-c3cc4ccc5nc4n3CC(F)(F)CCCCC(C)(C)C(=O)N[C@@H]5C)n(C)c12` [Example 608, (11~{R})-17-[5-[(3~{S}, 4~{R})-3-amino-4-methoxy-piperidine-1-carbonyl]-7-methoxy-1-methyl-benzimidazol-2-yl]-3,3-difluoro-8,8,11-trimethyl-1,10,19-triazatricyclo[10.5.2.0^ {15,18}]nonadeca-12,14,16,18-tetraen-9-one], the pIC50 is 6.94.

For `COc1cc(C(=O)N2C[C@H](N)[C@@H]3CC[C@H]2C3)cc2nc(-c3cc4ccc5nc4n3CCCCCc3ccc(F)cc3C(=O)N[C@@H]5C)n(C)c12` [Example 899, (2~{R})-17-[5-[(1~{S},4~{R}, 5~{R})-4-amino-2-azabicyclo [3.2.1]octane-2-carbonyl]-7-methoxy-1-methyl-benzimidazol-2-yl]-7-fluoro-2-methyl-3,16,22-triazatetracyclo [14.5.2.0^{5,10}.0^{19,23}] tricosa-1(22),5(10),6,8,17, 19(23),20-heptaen-4-one], the pIC50 was 7.52.

On to `C[C@H]1NC(=O)C(C)(C)CCCCCCn2c(-c3nc4cc(C(=O)N[C@H]5CNCC[C@@H]5F)c(F)cc4n3C3CC3)cc3ccc1nc32` [Example 179, 1-cyclopropyl-6-fluoro-~{N}-[(3~{S},4~{S})-4-fluoro-3-piperidyl]-2-[(11~{R})-8,8,11-trimethyl-9-oxo-1,10,19-triazatricyclo[10.5.2.0^{15,18}]nonadeca-12(19),13,15(18),16-tetraen-17-yl]benzimidazole-5-carboxamide], for which the pIC50 was 7.21.

As to `COc1cc(C(=O)N[C@H]2CNCC(F)(F)C2)cc2nc(-c3cc4ccc5nc4n3CCCCCCC(C)(C)C(=O)N[C@@H]5C)n(C)c12` [Example 63, ~{N}-[(3~{R})-5,5-difluoro-3-piperidyl]-7-methoxy-1-methyl-2-[(11~{R})-8,8,11-trimethyl-9-oxo-1,10,19-triazatricyclo[10.5.2.0^{15,18}]nonadeca-12(19),13,15(18),16-tetraen-17-yl]benzimidazole-5-carboxamide], the pIC50 was 4.60.

Consider `COc1cc(C(=O)N2[C@H]3CC[C@@H]2[C@H](N)C3)cc2nc(-c3cc4ccc5nc4n3CCCCCCCOc3ncccc3-5)n(C)c12` [Example 85, [(1˜{R},2˜{R},4˜{S})-2-amino-7-azabicyclo[2.2.1]heptan-7-yl]-[7-methoxy-1-methyl-2-(8-oxa-6,16,22-triazatetracyclo[14.5.2.0^{2,7}.0^{19,23}]tricosa-1(22),2,4,6,17,19(23),20-heptaen-17-yl)benzimidazol-5-yl]methanone], for which the pIC50 is 6.39.

As to `COc1cc(C(=O)N2CCC[C@@H](N)C2)cc2nc(-c3cc4ccc5nc4n3CCCCCCCCS(=O)(=O)N5C)n(C)c12` [Example 937], the pIC50 was 6.73.
